In patent US20190194179A1, “ANTIBIOTIC COMPOUNDS” (DISCUVA LTD., priority 2016, published 2019) one finds IC50 data, which are given here for 45 molecules.

The assay concerns Neisseria gonorrhoeae. The assay can be described thus: EC50 determination: plate-based broth growth assay (absorbance at 600 nm) of Neisseria gonorrhoeae. It is filed as cell-based. Conditions: absorbance 600 nm after 20 hours at 37° C./5% CO2, read-out: IC50 (Inhibitory concentration) against Neisseria gonorrhoeae. The procedure, abridged: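 Mid-log culture diluted to ~10^5 cells/ml as inoculum and grown 20 hours at 37° C./5% CO2 across a 10-point compound dilution series. Growth read as absorbance at 600 nm; EC50 taken from transformed data as the concentration giving 50% response relative to no-compound controls.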

Consider `FC(F)(F)c1ccc2nc(Nc3ncc(N4CCOCC4)s3)oc2c1` [Example 27, N-(5-Morpholinothiazol-2-yl)-6-(trifluoromethyl)benzo[d]oxazol-2-amine], for which the IC50 was not above 1000 nM.
Regarding `N#Cc1nnc(Nc2nc3ccc(Cl)cc3o2)o1` [Example 217, 5-((6-Chlorobenzo[d]oxazol-2-yl)amino)-1,3,4-oxadiazole-2-carbonitrile], the IC50 was not above 100 nM.
In the case of `FC(F)(F)c1ccc2oc(Nc3ncns3)nc2c1` [Example 23, N-(1,2,4-Thiadiazol-5-yl)-5-(trifluoromethyl)benzo[d]oxazol-2-amine], the IC50 is not above 1000 nM.
Under `Clc1ccc2nc(Nc3nnc[nH]3)oc2c1` [Example 150, 6-Chloro-N-(4H-1,2,4-triazol-3-yl)benzo[d]oxazol-2-amine] stands not above 1000 nM; under `O=C(NC1CC1)c1csc(Nc2nc3ccc(Cl)cc3o2)n1` [Example 20, 2-((6-Chlorobenzo[d]oxazol-2-yl)amino)-N-cyclopropylthiazole-4-carboxamide], not above 100 nM; under `CN1CCc2nc(Nc3nc4cc(C(F)(F)F)ccc4o3)oc2C1` [Example 155, 5-Methyl-N-(5-(trifluoromethyl)benzo[d]oxazol-2-yl)-4,5,6,7-tetrahydrooxazolo[5,4-c]pyridin-2-amine], not above 1000 nM.
In the case of `FC(F)(F)c1ccc2oc(Nc3nnc(CN4CCCC4)o3)nc2c1` [Example 71, N-(5-(Pyrrolidin-1-ylmethyl)-1,3,4-oxadiazol-2-yl)-5-(trifluoromethyl)benzo[d]oxazol-2-amine], the IC50 was not above 1000 nM.
Under `NC(=O)c1csc(Nc2nc3ccc(Cl)cc3o2)n1` [Example 33, 2-((6-Chlorobenzo[d]oxazol-2-yl)amino)thiazole-4-carboxamide] stands not above 1000 nM.
Next, `Brc1ccc2nc(Nc3nnco3)oc2c1` [Example 179, 6-Bromo-N-(1,3,4-oxadiazol-2-yl)benzo[d]ox-azol-2-amine]: not above 100 nM; `Cc1nnc(Nc2nc3cc(C(F)(F)F)c(Cl)cc3[nH]2)[nH]1` [Example 153, 6-Chloro-N-(5-methyl-4H-1,2,4-triazol-3-yl)-5-(trifluoromethyl)-1H-benzo[d]imidazol-2-amine]: not above 10000 nM; `Fc1cc2nc(Nc3nnco3)oc2cc1F` [Example 48, 5,6-diFluoro-N-(1,3,4-oxadiazol-2-yl)benzo[d]oxazol-2-amine]: not above 100 nM.
Next, `FC(F)(F)c1ccc2nc(Nc3nnco3)oc2c1` [Example 114, N-(1,3,4-Oxadiazol-2-yl)-6-(trifluoromethyl)benzo[d]oxazol-2-amine]: not above 1000 nM; `NC(=O)c1csc(Nc2nc3ccc(C(F)(F)F)cc3o2)n1` [Example 101, 2-((6-(trifluoromethyl)benzo[d]oxazol-2-yl)amino)thiazole-4-carboxamide]: not above 1000 nM; `Clc1cnc2nc(Nc3nnco3)oc2c1` [Example 220, 6-Chloro-N-(1,3,4-oxadiazol-2-yl)oxazolo[4,5-b]pyridin-2-amine]: not above 10000 nM.
Consider `FC(F)(F)Oc1cc2nc(Nc3nnco3)oc2cc1Cl` [Example 205, 6-Chloro-N-(1,3,4-oxadiazol-2-yl)-5-(trifluoro-methoxy)benzo [d]ox-azol-2-amine], for which the IC50 is not above 1000 nM.
Next, `Cc1nnc(Nc2nc3cccc(Cl)c3o2)[nH]1` [Example 121, 7-Chloro-N-(5-methyl-4H-1,2,4-triazol-3-yl)benzo[d]oxazol-2-amine]: not above 100 nM; `O=C(NC1CC1)c1csc(Nc2nc3ccc(C(F)(F)F)cc3o2)n1` [Example 26, N-Cyclopropyl-2-((6-(trifluoromethyl)benzo[d]oxazol-2-yl)amino)thiazole-4-carboxamide]: not above 100 nM.
Next, `Cc1cc(Nc2nc3cc(C(F)(F)F)c(Cl)cc3o2)no1` [Example 42, 6-Chloro-N-(5-methylisoxazol-3-yl)-5-(trifluoromethyl)benzo[d]oxazol-2-amine]: not above 100 nM; `O=C(Nc1cccc(F)c1)c1csc(Nc2nc3cc(C(F)(F)F)ccc3o2)n1` [Example 9, N-(3-Fluorophenyl)-2-((5-(trifluoromethyl)benzo[d]oxazol-2-yl)amino)thiazole-4-carboxamide]: not above 1000 nM; `c1nnc(Nc2nc3ccc(N4CCOCC4)cc3o2)o1` [Example 185, 6-Morpholino-N-(1,3,4-oxadiazol-2-yl)benzo[d]ox-azol-2-amine]: not above 10000 nM.
Next, `O=C1CCCN1c1ccc2nc(Nc3nnco3)oc2c1` [Example 212, 1-(2-((1,3,4-oxadiazol-2-yl)amino)benz-o[d]oxazol-6-yl)pyrrolidin-2-one]: not above 100000 nM; `FC(F)(F)c1ccc2oc(Nc3nnc(CN4CCCC4)[nH]3)nc2c1` [Example 128, N-(5-(Pyrrolidin-1-ylmethyl)-4H-1,2,4-triazol-3-yl)-5-(trifluoromethyl)benzo[d]oxazol-2-amine]: not above 1000 nM.
As for `Fc1ccc2nc(Nc3nnco3)oc2c1` [Example 63, 6-Fluoro-N-(1,3,4-oxadiazol-2-yl)benzo[d]oxazol-2-amine], the IC50 is not above 1000 nM.
Under `Nc1ccc2nc(Nc3nnco3)oc2c1` [Example 195, N^2-(1,3,4-oxadiazol-2-yl)benzo[d]oxazole-2,6-diamine] stands not above 10000 nM; under `COC(=O)c1ccc2[nH]c(Nc3nnc(C)o3)nc2c1` [Example 84, Methyl 2-((5-methyl-1,3,4-oxadiazol-2-yl)amino)-1H-benzo[d]imidazole-5-carboxylate], not above 10000 nM.
As to `CN1CCC[C@H]1c1nnc(Nc2nc3cc(C(F)(F)F)ccc3o2)o1` [Example 126, (S)-N-(5-(1-Methylpyrrolidin-2-yl)-1,3,4-oxadiazol-2-yl)-5-(trifluoromethyl)benzo[d]oxazol-2-amine], the IC50 is not above 1000 nM.
Next, `Cc1nnc(Nc2nc3c(F)cccc3o2)o1` [Example 62, 4-Fluoro-N-(5-methyl-1,3,4-oxadiazol-2-yl)benzo[d]oxazol-2-amine]: not above 1000 nM.
For `COc1cc2oc(Nc3nnco3)nc2cc1C` [Example 208, 6-Methoxy-5-methyl-N-(1,3,4-oxadiazol-2-yl)benzo[d]oxa-zol-2-amine], the IC50 was not above 1000 nM.
Next, `CC(C)(C)OC(=O)N1CCN(c2nnc(Nc3nc4cc(C(F)(F)F)ccc4o3)o2)CC1` [Example 148, tert-butyl 4-(5-((5-(trifluoromethyl)benzo[d]oxazol-2-yl)amino)-1,3,4-oxadiazol-2-yl)piperazine-1-carboxylate]: not above 100000 nM; `NC(=O)c1nnc(Nc2nc3ccc(F)cc3o2)o1` [Example 201, 5-((6-Fluorobenzo[d]oxazol-2-yl)amino)-1,3,4-oxadiazole-2-carboxamide]: not above 100000 nM.
Under `NC(=O)c1csc(Nc2nc3cc(C(F)(F)F)ccc3o2)n1` [Example 21, 2-((5-(Trifluoromethyl)benzo[d]oxazol-2-yl)amino)thiazole-4-carboxamide] stands not above 1000 nM; under `NC(=O)c1nnc(Nc2nc3ccc(C(F)(F)F)cc3o2)o1` [Example 102, 5-((6-(Trifluoromethyl)benzo[d]oxazol-2-yl)amino)-1,3,4-oxadiazole-2-carboxamide], not above 100000 nM.
Next, `Clc1ccc2nc(Nc3ccsn3)oc2c1` [Example 222, 6-Chloro-N-(isothiazol-3-yl)benzo[d]oxazol-2-amine]: not above 1000 nM; `Clc1cccc2oc(Nc3nnc(CN4CCCC4)[nH]3)nc12` [Example 130, 4-Chloro-N-(5-(pyrrolidin-1-ylmethyl)-4H-1,2,4-triazol-3-yl)benzo[d]oxazol-2-amine]: not above 10000 nM.
With `COc1cc2nc(Nc3nnco3)oc2cc1F` [Example 209, 6-Fluoro-5-methoxy-N-(1,3,4-oxadiazol-2-yl)benzo[d]oxa-zol-2-amine], the IC50 was not above 1000 nM.
As to `Cc1nnc(Nc2nc3ccc(F)cc3o2)o1` [Example 54, 6-Fluoro-N-(5-methyl-1,3,4-oxadiazol-2-yl)benzo[d]oxazol-2-amine], the IC50 is not above 1000 nM.
Next, `FC(F)(F)c1cc2oc(Nc3nc4ccccc4o3)nc2cn1` [Example 163, N-(Benzo[d]oxazol-2-yl)-6-(trifluoromethyl) oxazolo[4,5-c]pyridin-2-amine]: not above 100 nM; `FC(F)(F)c1cc2oc(Nc3nnco3)nc2cc1Cl` [Example 149, 5-Chloro-N-(1,3,4-oxadiazol-2-yl)-6-(trifluoromethyl)benzo[d]oxazol-2-amine]: not above 100 nM.
Under `Cc1nnc(Nc2nc3ccc(C(F)(F)F)cc3[nH]2)o1` [Example 83, 5-Methyl-N-(6-(trifluoromethyl)-1H-benzo[d]imidazol-2-yl)-1,3,4-oxadiazol-2-amine] stands not above 1000 nM; under `CC(C)c1nnc(Nc2nc3ccc(Cl)cc3o2)o1` [Example 214, 6-Chloro-N-(5-isopropyl-1,3,4-oxadiazol-2-yl)benzo[d]oxa-zol-2-amine], not above 100 nM.
Next, `Cc1nnc(Nc2nc3cccc(Cl)c3o2)o1` [Example 39, 7-Chloro-N-(5-methyl-1,3,4-oxadiazol-2-yl)benzo[d]oxazol-2-amine]: not above 1000 nM.
On to `Clc1ccc2oc(Nc3nnco3)nc2c1` [Example 135, 5-Chloro-N-(1,3,4-oxadiazol-2-yl)benzo[d]oxazol-2-amine], for which the IC50 is not above 100 nM.
Next, `COc1cc2oc(Nc3nnco3)nc2cc1Cl` [Example 190, 5-Chloro-6-methoxy-N-(1,3,4-oxadiazol-2-yl)benzo[d]ox-azol-2-amine]: not above 100 nM; `O=C(O)c1nc(Nc2nc3ccc(Cl)cc3o2)co1` [Example 182, 4-((6-chlorobenzo [d]oxazol-2-yl)amino)oxa-zole-2-carboxylic acid]: not above 100000 nM; `Cc1nnc(Nc2nc3cnccc3o2)o1` [Example 58, N-(5-Methyl-1,3,4-oxadiazol-2-yl)oxazolo[4,5-c]pyridin-2-amine]: not above 10000 nM.
